Laboratory results taken from ChEMBL document CHEMBL3797188, “Piperidine derivatives as nonprostanoid IP receptor agonists 2” (Bioorg Med Chem Lett, 2016).

Assays:
[1] = Antiplatelet activity in human platelet rich plasma assessed as inhibition of ADP-induced platelet aggregation; type: functional, cell-free
[2] = Cmax in fasted dog at 0.5 mg/kg, po; type: ADME, organism-based, Canis lupus familiaris; parameters: dose 0.5 mg/kg, route oral; conditions: in vivo
[3] = Oral bioavailability in fasted dog at 0.5 mg/kg; type: ADME, organism-based, Canis lupus familiaris; conditions: in vivo
Prostacyclin receptor = Prostacyclin receptor (Homo sapiens, UniProt P43119); assay: Binding affinity to human IP receptor
[4] = biological target: Prostaglandin E2 receptor EP2 subtype (Homo sapiens, UniProt P43116); assay: Binding affinity to human EP2 receptor
[5] = biological target: T1, Prostaglandin E2 receptor EP3 subtype (Homo sapiens, UniProt P43115); assay: Binding affinity to human EP3 receptor
T1 sequence (P43115 whole entry): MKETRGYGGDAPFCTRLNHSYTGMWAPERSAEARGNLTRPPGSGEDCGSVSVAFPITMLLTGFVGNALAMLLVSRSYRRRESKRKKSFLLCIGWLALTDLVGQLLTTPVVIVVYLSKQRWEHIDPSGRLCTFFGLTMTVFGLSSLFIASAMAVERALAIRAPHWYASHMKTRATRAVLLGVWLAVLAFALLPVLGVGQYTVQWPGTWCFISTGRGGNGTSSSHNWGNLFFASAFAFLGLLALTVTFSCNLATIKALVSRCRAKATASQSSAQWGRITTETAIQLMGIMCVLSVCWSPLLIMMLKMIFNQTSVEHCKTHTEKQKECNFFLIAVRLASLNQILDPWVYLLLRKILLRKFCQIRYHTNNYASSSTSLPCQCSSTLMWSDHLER

[6] = biological target: Prostaglandin E2 receptor EP4 subtype (Homo sapiens, UniProt P35408); assay: Binding affinity to human EP4 receptor
[7] = biological target: Prostaglandin F2-alpha receptor (Homo sapiens, UniProt P43088); assay: Binding affinity to human FP receptor
Thromboxane A2 receptor = biological target: T2, Thromboxane A2 receptor (Homo sapiens, UniProt P21731); assay: Binding affinity to human TP receptor
T2 sequence (P21731 whole entry): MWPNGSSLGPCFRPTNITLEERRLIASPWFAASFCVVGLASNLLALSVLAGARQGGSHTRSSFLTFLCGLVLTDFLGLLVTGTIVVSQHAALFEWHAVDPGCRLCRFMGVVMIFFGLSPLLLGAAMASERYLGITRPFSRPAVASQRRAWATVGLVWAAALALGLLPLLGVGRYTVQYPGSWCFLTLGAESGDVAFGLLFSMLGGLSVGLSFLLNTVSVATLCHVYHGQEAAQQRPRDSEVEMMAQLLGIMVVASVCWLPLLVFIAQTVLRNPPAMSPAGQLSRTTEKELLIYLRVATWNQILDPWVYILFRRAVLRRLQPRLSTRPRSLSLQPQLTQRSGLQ

Prostaglandin E2 receptor EP2 subtype, sequence (P43116 whole entry): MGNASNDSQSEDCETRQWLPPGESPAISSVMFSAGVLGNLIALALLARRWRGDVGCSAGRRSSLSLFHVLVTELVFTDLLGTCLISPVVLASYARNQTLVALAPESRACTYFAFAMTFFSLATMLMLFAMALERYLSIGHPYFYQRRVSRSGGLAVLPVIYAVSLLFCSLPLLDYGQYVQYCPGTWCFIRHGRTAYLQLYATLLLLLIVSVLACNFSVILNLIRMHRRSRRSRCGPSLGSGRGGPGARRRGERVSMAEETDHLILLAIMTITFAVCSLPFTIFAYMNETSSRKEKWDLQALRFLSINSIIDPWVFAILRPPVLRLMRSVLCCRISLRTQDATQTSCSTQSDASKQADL
Prostacyclin receptor, sequence (P43119 whole entry): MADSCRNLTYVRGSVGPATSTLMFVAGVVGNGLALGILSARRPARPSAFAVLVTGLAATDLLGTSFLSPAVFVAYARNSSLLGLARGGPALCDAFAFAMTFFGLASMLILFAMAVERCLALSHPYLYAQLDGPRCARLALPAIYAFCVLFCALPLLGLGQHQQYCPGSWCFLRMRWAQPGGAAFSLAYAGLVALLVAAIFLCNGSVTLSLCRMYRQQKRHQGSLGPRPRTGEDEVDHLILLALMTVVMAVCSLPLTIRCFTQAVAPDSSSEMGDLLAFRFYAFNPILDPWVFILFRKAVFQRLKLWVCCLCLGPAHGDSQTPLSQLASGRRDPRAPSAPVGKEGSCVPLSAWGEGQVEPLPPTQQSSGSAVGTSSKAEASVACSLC
Prostaglandin E2 receptor EP4 subtype, sequence (P35408 whole entry): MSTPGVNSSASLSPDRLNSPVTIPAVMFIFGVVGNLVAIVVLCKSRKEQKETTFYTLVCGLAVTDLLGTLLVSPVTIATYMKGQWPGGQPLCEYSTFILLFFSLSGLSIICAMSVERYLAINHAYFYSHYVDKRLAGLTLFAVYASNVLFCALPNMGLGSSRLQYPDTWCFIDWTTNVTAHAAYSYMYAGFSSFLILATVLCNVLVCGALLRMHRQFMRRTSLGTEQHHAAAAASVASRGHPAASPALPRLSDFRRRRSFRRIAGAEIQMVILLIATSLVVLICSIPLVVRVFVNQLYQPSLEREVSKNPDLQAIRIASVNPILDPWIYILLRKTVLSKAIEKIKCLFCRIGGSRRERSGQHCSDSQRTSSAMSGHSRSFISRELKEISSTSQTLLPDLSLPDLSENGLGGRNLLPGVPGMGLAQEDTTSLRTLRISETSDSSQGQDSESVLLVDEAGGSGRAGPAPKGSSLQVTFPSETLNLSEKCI
Prostaglandin F2-alpha receptor, sequence (P43088 whole entry): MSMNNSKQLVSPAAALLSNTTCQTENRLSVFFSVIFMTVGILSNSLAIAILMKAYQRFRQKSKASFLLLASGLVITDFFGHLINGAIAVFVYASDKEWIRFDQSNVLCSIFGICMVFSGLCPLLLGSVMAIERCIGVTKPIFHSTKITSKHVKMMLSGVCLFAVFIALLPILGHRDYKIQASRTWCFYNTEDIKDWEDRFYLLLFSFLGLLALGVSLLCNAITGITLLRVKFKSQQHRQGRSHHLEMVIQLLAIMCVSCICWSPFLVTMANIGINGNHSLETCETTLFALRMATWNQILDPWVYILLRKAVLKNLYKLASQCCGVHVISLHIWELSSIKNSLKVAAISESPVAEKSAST

SMILES	IC50 [1] [nM]	further results
Cc1ccc(N(CCN2CCC(OCC(=O)O)CC2)C(=O)c2ccc3c(c2)OCO3)cc1	21	
Cc1ccc(N(CCN2CCC(OCC(=O)O)CC2)C(=O)c2ccc(-c3ccccc3)cc2)cc1	> 10000	
O=C(O)COC1CCN(CCN(C(=O)c2cccc(C(F)(F)F)c2)c2ccc(Cl)cc2)CC1	> 10000	
Cc1ccc(N(CCN2CCC(OCC(=O)O)CC2)C(=O)c2cccc(Cl)c2)cc1	100	
Cc1ccc(N(CCN2CCC(OCC(=O)O)CC2)C(=O)c2cccc(C)c2)cc1	160	
O=C(O)COC1CCN(CCN(C(=O)c2cccc(Cl)c2)c2ccc(Cl)cc2)CC1	350	
Cc1ccc(N(CCN2CCC(OCC(=O)O)CC2)C(=O)c2ccccc2)cc1	220	
COc1cccc(C(=O)N(CCN2CCC(OCC(=O)O)CC2)c2ccc(C)cc2)c1OC	1600	
COc1ccc(C(=O)N(CCN2CCC(OCC(=O)O)CC2)c2ccc(C)cc2)cc1OC	> 3000	
Cc1ccc(N(CCN2CCC(OCC(=O)O)CC2)C(=O)c2ccc3c(c2)OCO3)cc1.Cl.O		Cmax [2]: 130 ng/mL; bioavailability [3]: 76%; Ki (Prostacyclin receptor): 400 nM; Ki [4]: > 50000 nM; Ki [5]: > 50000 nM; Ki [6]: > 50000 nM; Ki [7]: > 50000 nM; Ki (Thromboxane A2 receptor): > 50000 nM
Cc1ccc(N(CCN2CCC(OCC(=O)O)CC2)C(=O)c2ccc(C(F)(F)F)cc2)cc1	> 10000	
COc1cc(OC)cc(C(=O)N(CCN2CCC(OCC(=O)O)CC2)c2ccc(C)cc2)c1	530	
COc1cccc(C(=O)N(CCN2CCC(OCC(=O)O)CC2)c2ccc(C)cc2)c1	32	
Cc1ccc(N(CCN2CCC(OCC(=O)O)CC2)C(=O)c2cccc(C(F)(F)F)c2)cc1	20000	
Cc1ccc(N(CCN2CCC(OCC(=O)O)CC2)C(=O)c2cccc(F)c2)cc1	160	
O=C(O)COC1CCN(CCN(C(=O)c2ccc(-c3ccccc3)cc2)c2ccc(Cl)cc2)CC1	> 10000	
COc1ccc(OC)c(C(=O)N(CCN2CCC(OCC(=O)O)CC2)c2ccc(C)cc2)c1	> 3000	

Continued, in another order:

IC50 [1] [nM]	SMILES	further results
340	O=C(O)COC1CCN(CCN(C(=O)c2cccc(F)c2)c2ccc(Cl)cc2)CC1	
1200	COc1ccc(C(=O)N(CCN2CCC(OCC(=O)O)CC2)c2ccc(C)cc2)cc1	
74	COc1cccc(C(=O)N(CCN2CCC(OCC(=O)O)CC2)c2ccc(Cl)cc2)c1	
440	O=C(O)COC1CCN(CCN(C(=O)c2ccccc2)c2ccc(Cl)cc2)CC1	
2000	O=C(O)COC1CCN(CCN(C(=O)c2ccc(F)cc2)c2ccc(Cl)cc2)CC1	
> 10000	O=C(O)COC1CCN(CCN(C(=O)c2ccc(C(F)(F)F)cc2)c2ccc(Cl)cc2)CC1	
1500	O=C(O)COC1CCN(CCN(C(=O)c2ccc(Cl)cc2)c2ccc(Cl)cc2)CC1	
970	Cc1ccc(N(CCN2CCC(OCC(=O)O)CC2)C(=O)c2ccc(F)cc2)cc1	
690	Cc1ccc(N(CCN2CCC(OCC(=O)O)CC2)C(=O)c2ccc(Cl)cc2)cc1	
310	Cc1cccc(C(=O)N(CCN2CCC(OCC(=O)O)CC2)c2ccc(Cl)cc2)c1	
3100	COc1ccc(C(=O)N(CCN2CCC(OCC(=O)O)CC2)c2ccc(Cl)cc2)cc1	
